Eleven molecules from patent publication USRE49351E1, “Cytoprotective agent” (Biogen MA Inc., priority 2009, dated 2023) can be followed below.

Where a name gives a salt, the structure may show the parent alone.

Test [1] in a line: H-ORAC (hydrophilic oxygen radical absorbance capacity) assay. It counts as biochemical. The conditions noted are these: sodium salt aqueous solution, phosphate buffer pH 7.4. The protocol: (§1) To study the free radical scavenging activity of a triprenyl phenol compound, the following H-ORAC (hydrophilic oxygen radical absorbance capacity) assay, and modified H-ORAC (mH-ORAC) assay were conducted.
(§2) SMTP compounds evaluated by H-ORAC were used respectively in a form of a sodium salt aqueous solution, and the compounds evaluated by mH-ORAC were used respectively in a form of an acetone solution.
(§3) In H-ORAC a test compound was diluted appropriately with a buffer solution (75 mM phosphate buffer solution, pH 7.4) and used for measurement. In mH-ORAC a test compound was diluted appropriately by a 50% (v/v) acetone solution, prepared by diluting an acetone solution with water, to prepare a solution of 40-fold the final concentration. […] As for the reference material Trolox, 500 μM/buffer solution was diluted appropriately with a buffer solution.
(§4) To a 96-well microplate (transparent, flat bottom, black wall) 50 μL of a test compound solution or a Trolox solution was placed, and additionally 100 μL of a fluorescein 140 nM/buffer solution as a fluorescent substance was added (final concentration 70 nM), followed by incubation at 37° C. for […].
(§5) As a free radical generator, 50 μL of a 48 mM/buffer solution of 2,2′-azobis(amidinopropane)dihydrochloride was added (final concentration 12 mM), and fluorescence intensity at fluorescence wavelength of 535 nm with excitation wavelength of 485 nm was measured at 2 min intervals for 90 min. The calibration curve was prepared between the Trolox final concentrations of 5 to 15 μM. The measurement was conducted by changing the concentration with n=3, and plotted on a diagram with time on the abscissa and the fluorescence intensity on the ordinate. Therewith evaluation was made using the value obtained by reducing the area under the curve for the blank from the area under the curve for the sample. The result was expressed as an equivalent to Trolox.

A short description of test [2]: modified H-ORAC (mH-ORAC) assay. It counts as biochemical. The conditions noted are these: acetone solution, acetone final concentration 1.25%. The protocol:
as §1, §2, §3, §4, §5

Test [3] has as its system Mongolian gerbil cerebral infarction model. Description: Mongolian gerbil cerebral infarction model (acetic acid-induced thrombus): infarction area percentage and neurological symptom. It is filed as in vivo. The settings on record: mean ± SE, n=6; for Infarction area: evaluated 24 h; for Neurological scores: score 0-4 at 24 h. The source says:
Anesthesia was induced to a male Mongolian gerbil (body weight 55 to 65 g) by inhalation of 5% isoflurane (trade name Escain, Mylan Inc.), and maintained with 1 to 1.5% isoflurane. The Mongolian gerbil was fixed in a dorsal position, and the neck was dehaired and then disinfected with 70% ethanol. After median incision of the neck, the right common carotid artery was detached, clamped to block the blood flow temporarily, and coated with 100% acetic acid by 30 reciprocating motions so as to produce a thrombus. The blood vessel was reopened after 10 min of the blockage of the blood flow to transfer the thrombus by the blood stream into the brain to make it ischemic and generate cerebral infarction. The operating field was closed with an instant adhesive (trade name Aron Alpha (Krazy Glue), Toagosei Co., Ltd.) and disinfected with 70% ethanol.
Twenty four hours after the initiation of the operation neurological symptoms were observed as an indicator for cerebral infarction. Many types of neurological symptoms specific to cerebral infarction, such as extension of a hindlimb or circling to one direction, have been reported. Applying a modified evaluation method of the method proposed by Longa, et al. (Stroke 1989; 20:84-91) postoperative neurological symptoms were evaluated as per: no deficit, 0; extension of limb, 1; circling to one direction, 2; incline posture, 3; diminished motion, 4.
With respect to statistical analysis, for multiple comparisons was conducted firstly one-way analysis of variance (ANOVA) and then a Bonferroni test was conducted, if significant difference is detected. Significant difference was positively recognized with significance level 5% (P<0.05). All the results are expressed in mean±standard error.
After the evaluation of neurological symptoms according to the above method, the animal was decapitated under anesthesia with isoflurane. The cranial bone was exfoliated of skin and opened, and, after scission of optic nerve, the brain was extirpated and dipped in a physiological saline solution to remove attached body hairs, etc. The extirpated brain was placed in a brain matrix (RBM-1000C, ASI Instruments) to carry out coronal slicing from the frontal pole at thickness of 2 mm. The slices were dipped in 2% 2,3,5-triphenyl-2H-tetrazolium chloride (TTC), and incubated for staining at 37° C. for 30 min in a CO2 incubator. The colorless TTC is reduced by hydrogen liberated by the action of dehydrogenase contained in a normal cell converting to dark red colored water-insoluble 1,3,5-triphenylformazan (TPF), so that the normal cell is stained. Unstained area (white area) was defined as an infarction area. Meanwhile, the corpus callosum, which is commissural fibers connecting the right and left cerebral hemispheres, is not stained and is white, and therefore image processing for the analyses as described below was conducted excluding the corpus callosum.
After staining images of the brain slices were taken by a digital camera under a stereoscopic microscope. For analysis of the infarction area percentage, an image analysis software Image J (Version 1.4) was used. Full, excluding the corpus callosum, images of the taken 2nd, 3rd, and 4th brain slice images were converted to grayscale. From the grayscale images a histogram for the whole brain as the object scope was obtained showing in the ordinate the frequency of occurrence (frequency) at certain brightness, and showing in the abscissa the brightness (0 to 255). The sum from 0 to 255 was defined as the area size of the whole brain, and the sum from 160 to 219 was defined as the area size of the infarction area. Then the infarction area percentage was determined according to the following formula using the total area size of the infarction areas and the total area size of the whole brain, of the 3 brain slice images. Statistical analysis was conducted as above. […]

The mark [4] stands for this setting: 1 mg/kg i.v., administration initiated 0 hr after ischemia.
Setting [5] is: 1 mg/kg i.v., administration initiated 1 hr after ischemia.
Where [6] appears, read: 10 mg/kg i.v., administration initiated 1 hr after ischemia.
[7] abbreviates: 3 mg/kg i.v., administration initiated 0 hr after ischemia.
Where [8] appears, read: 3 mg/kg i.v., administration initiated 1 hr after ischemia.
Where [9] appears, read: 3 mg/kg i.v., administration initiated 3 hr after ischemia.

Turning to `CC(C)=CCCC(C)=CCC[C@]1(C)Oc2c(c(O)cc3c2CN(c2ccc(S(=O)(=O)O)cc2)C3=O)C[C@@H]1O` [SMTP-42], the “free radical scavenging activity, Trolox equivalent” value (shortened to “free radical scavenging activity”) in test [1] is given as 3.28 ± 0.25 molTE/mol.

For the molecule `CC(C)=CCCC(C)=CCC[C@]1(C)Oc2c(c(O)cc3c2CN([C@@H](Cc2ccc(O)cc2)C(=O)O)C3=O)C[C@@H]1O` [SMTP-14], in test [1], the “free radical scavenging activity” value was found to be 4.43 ± 0.49 molTE/mol.

`CC(C)=CCC/C(C)=C/CC[C@]1(C)Oc2c(c(O)cc3c2CN(CCO)C3=O)C[C@@H]1O` [SMTP-1]: in test [2], the “free radical scavenging activity” value is 4.35 ± 0.55 molTE/mol.

In the case of `CC1CNc2c(cccc2S(=O)(=O)N[C@@H](CCCNC(=N)N)C(=O)N2CC[C@@H](C)C[C@@H]2C(=O)O)C1` (stereo partly drawn) [argatroban], the values for the Infarction area in test [3] (setting [4]), in test [3] (setting [5]) and in test [3] (setting [6]) were 10.0 ± 2.66%, 12.1 ± 2.46% and 11.5 ± 2.57%, respectively. The Neurological scores in test [3] (setting [4]) came out at 2.33 ± 0.61; in test [3] (setting [5]), 2.50 ± 0.50; in test [3] (setting [6]) it was 2.50 ± 0.56.

As for `CC(C)=CCC/C(C)=C/CC[C@]1(C)Oc2c(c(O)cc3c2CNC3=O)C[C@@H]1O` [SMTP-0], in test [2], the “free radical scavenging activity” value was determined as 7.76 ± 0.36 molTE/mol.

With `CSCC[C@@H](C(=O)O)N1Cc2c(cc(O)c3c2O[C@@](C)(CCC=C(C)CCC=C(C)C)[C@@H](O)C3)C1=O` [SMTP-13], in test [1], the “free radical scavenging activity” value is 3.07 ± 0.51 molTE/mol.

Turning to `Clc1ccccc1CN1CCc2sccc2C1` [ticlopidine HCl], the figures for the Infarction area in test [3] (setting [4]), in test [3] (setting [5]) and in test [3] (setting [6]) were 8.83 ± 1.73%, 13.1 ± 3.89% and 9.84 ± 1.81%, respectively. The Neurological scores in test [3] (setting [4]) amounted to 2.33 ± 0.42; in test [3] (setting [5]), 2.67 ± 0.56; in test [3] (setting [6]) it was 2.33 ± 0.42.

On to `CC(C)=CCC/C(C)=C/CCC1(C)Oc2c(c(O)cc3c2CN([C@H](CC(C)C)C(=O)O)C3=O)CC1O` (stereo partly drawn) [SMTP-5D], for which, in test [1], the “free radical scavenging activity” value is given as 1.71 ± 0.20 molTE/mol.

On to `CC(C)=CCCC(C)=CCCC1(C)Oc2c(c(O)cc3c2CN(CCCCC(C(=O)O)N2Cc4c(cc(O)c5c4OC(C)(CCC=C(C)CCC=C(C)C)C(O)C5)C2=O)C3=O)CC1O` (stereo not drawn) [SMTP-8], for which the “free radical scavenging activity” value in test [2] amounted to 1.69 ± 0.14 molTE/mol.

Take `CC1=NN(c2ccccc2)C(=O)C1` [edaravone]: the Infarction area in test [3] (setting [5]) is on record as 12.8 ± 2.87%; in test [3] (setting [7]), 9.95 ± 3.22%; in test [3] (setting [8]), 8.29 ± 1.61 %; in test [3] (setting [9]) it was 12.3 ± 5.59%; in test [3] (setting [6]), 9.29 ± 2.17%. Also, the Neurological scores in test [3] (setting [5]) stood at 3.17 ± 0.17; in test [3] (setting [7]) it was 1.50 ± 0.67; in test [3] (setting [8]), 1.50 ± 0.67; in test [3] (setting [9]), 2.50 ± 0.56; in test [3] (setting [6]), 1.83 ± 0.65.

With `CC(C)=CCC/C(C)=C/CCC1(C)Oc2c(c(O)cc3c2CN(C(Cc2ccccc2)C(=O)O)C3=O)CC1O` (stereo not drawn) [SMTP-4], the “free radical scavenging activity” value in test [1] is given as 1.79 ± 0.02 molTE/mol.
